Test results as given in BindingDB's records for doi:10.1021/jm101144f (Dana-Farber Cancer Institute, 2010).

Test: Inhibition of PI3Kalpha in human PC3 cells expressing Akt1 S473D mutant assessed as phosphorylation of Akt Thr308 by immunoblotting

IC50: > 300 nM
Compound: COCCC(=O)N1CCN(c2ccc(Nc3ccnc4ccc(-c5cnc6ccccc6c5)cc34)cc2C(F)(F)F)CC1 [1-(4-(4-([3,6'-biquinolin]-4'-ylamino)-2-(trifluoromethyl)phenyl)piperazin-1-yl)-3-methoxypropan-1-one]
